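The compound was tested at five concentrations on cells cultured in 96-well plates, with a 48-hour exposure period. At the TGI there is no net growth.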
How the values were obtained:
Assay in all cases: NCI tumour cell line growth inhibition, 48 h
[1] = test system: 786-0 renal
[2] = test system: A498 renal
[3] = test system: A549 NSCLC
[4] = test system: ACHN renal
[5] = test system: BT-549 breast
[6] = test system: CAKI-1 renal
[7] = test system: CCRF-CEM leukemia
[8] = test system: COLO 205 colon
[9] = test system: DU-145 prostate
[10] = test system: EKVX NSCLC
[11] = test system: HCT-116 colon
[12] = test system: HCT-15 colon
[13] = test system: HL-60(TB) leukemia
[14] = test system: HOP-62 NSCLC
[15] = test system: HOP-92 NSCLC
[16] = test system: HS 578T breast
[17] = test system: HT29 colon
[18] = test system: IGROV1 ovarian
[19] = test system: K-562 leukemia
[20] = test system: KM12 colon
[21] = test system: LOX IMVI melanoma
[22] = test system: M14 melanoma
[23] = test system: MALME-3M melanoma
[24] = test system: MCF7 breast
[25] = test system: MDA-MB-231 breast
[26] = test system: MDA-MB-435
[27] = test system: MDA-N
[28] = test system: MOLT-4 leukemia
[29] = test system: NCI-H226 lung
[30] = test system: NCI-H23 lung
[31] = test system: NCI-H460 lung
[32] = test system: NCI-H522 lung
[33] = test system: NCI/ADR-RES ovarian
[34] = test system: OVCAR-3 ovarian
[35] = test system: OVCAR-4 ovarian
[36] = test system: OVCAR-5 ovarian
[37] = test system: OVCAR-8 ovarian
[38] = test system: PC-3 prostate
[39] = test system: RPMI-8226 leukemia
[40] = test system: RXF 393 renal
[41] = test system: SF-268 CNS
[42] = test system: SF-295 CNS
[43] = test system: SF-539 CNS
[44] = test system: SK-MEL-2 melanoma
[45] = test system: SK-MEL-28 melanoma
[46] = test system: SK-MEL-5 melanoma
[47] = test system: SK-OV-3 ovarian
[48] = test system: SN12C renal
[49] = test system: SNB-19 CNS
[50] = test system: SNB-75 CNS
[51] = test system: SR leukemia
[52] = test system: SW-620 colon
[53] = test system: T-47D breast
[54] = test system: TK-10 renal
[55] = test system: U251 CNS
[56] = test system: UACC-257 melanoma
[57] = test system: UACC-62 melanoma
[58] = test system: UO-31 renal
[59] = test system: HCC-2998 colon

Structure (SMILES): C(=Nc1cnc2ccccc2c1)c1ccc2ccccc2n1
- TGI [1]: > 100 µM
- TGI [2]: > 100 µM
- TGI [3]: > 100 µM
- TGI [4]: > 100 µM
- TGI [5]: > 100 µM
- TGI [6]: > 100 µM
- TGI [7]: > 100 µM
- TGI [8]: > 100 µM
- TGI [9]: > 100 µM
- TGI [10]: > 100 µM
- TGI [11]: > 100 µM
- TGI [12]: > 100 µM
- TGI [13]: > 100 µM
- TGI [14]: > 100 µM
- TGI [15]: > 100 µM
- TGI [16]: > 100 µM
- TGI [17]: > 100 µM
- TGI [18]: > 100 µM
- TGI [19]: > 100 µM
- TGI [20]: > 100 µM
- TGI [21]: > 100 µM
- TGI [22]: > 100 µM
- TGI [23]: > 100 µM
- TGI [24]: > 100 µM
- TGI [25]: > 100 µM
- TGI [26]: > 100 µM
- TGI [27]: > 100 µM
- TGI [28]: > 100 µM
- TGI [29]: > 100 µM
- TGI [30]: > 100 µM
- TGI [31]: > 100 µM
- TGI [32]: > 100 µM
- TGI [33]: > 100 µM
- TGI [34]: > 100 µM
- TGI [35]: > 100 µM
- TGI [36]: > 100 µM
- TGI [37]: > 100 µM
- TGI [38]: > 100 µM
- TGI [39]: > 100 µM
- TGI [40]: > 100 µM
- TGI [41]: > 100 µM
- TGI [42]: > 100 µM
- TGI [43]: > 100 µM
- TGI [44]: > 100 µM
- TGI [45]: > 100 µM
- TGI [46]: > 100 µM
- TGI [47]: > 100 µM
- TGI [48]: > 100 µM
- TGI [49]: > 100 µM
- TGI [50]: > 100 µM
- TGI [51]: 71.4 µM
- TGI [52]: > 100 µM
- TGI [53]: > 100 µM
- TGI [54]: > 100 µM
- TGI [55]: > 100 µM
- TGI [56]: > 100 µM
- TGI [57]: > 100 µM
- TGI [58]: > 100 µM

Structure (SMILES): COc1ccc(NC(=O)CC(=O)NNC(Sc2ccccc2)c2cc(N=Nc3ccc(Br)cc3)ccc2O)cc1 (centres undefined)
- TGI [1]: > 10 µM
- TGI [2]: > 10 µM
- TGI [3]: > 10 µM
- TGI [4]: > 10 µM
- TGI [5]: > 10 µM
- TGI [6]: > 10 µM
- TGI [7]: > 10 µM
- TGI [8]: > 10 µM
- TGI [9]: > 10 µM
- TGI [10]: > 10 µM
- TGI [59]: > 10 µM
- TGI [11]: > 10 µM
- TGI [12]: > 10 µM
- TGI [13]: > 10 µM
- TGI [14]: > 10 µM
- TGI [15]: > 10 µM
- TGI [16]: > 10 µM
- TGI [17]: > 10 µM
- TGI [18]: > 10 µM
- TGI [19]: > 10 µM
- TGI [20]: > 10 µM
- TGI [21]: > 10 µM
- TGI [22]: > 10 µM
- TGI [23]: > 10 µM
- TGI [24]: > 10 µM
- TGI [25]: > 10 µM
- TGI [26]: > 10 µM
- TGI [27]: > 10 µM
- TGI [28]: > 10 µM
- TGI [29]: > 10 µM
- TGI [30]: > 10 µM
- TGI [31]: > 10 µM
- TGI [32]: > 10 µM
- TGI [33]: > 10 µM
- TGI [34]: > 10 µM
- TGI [35]: > 10 µM
- TGI [36]: > 10 µM
- TGI [37]: > 10 µM
- TGI [38]: > 10 µM
- TGI [39]: > 10 µM
- TGI [40]: > 10 µM
- TGI [41]: > 10 µM
- TGI [42]: > 10 µM
- TGI [43]: > 10 µM
- TGI [44]: > 10 µM
- TGI [45]: > 10 µM
- TGI [46]: > 10 µM
- TGI [47]: > 10 µM
- TGI [48]: > 10 µM
- TGI [49]: > 10 µM
- TGI [50]: > 10 µM
- TGI [51]: > 10 µM
- TGI [52]: > 10 µM
- TGI [53]: > 10 µM
- TGI [54]: > 10 µM
- TGI [55]: > 10 µM
- TGI [56]: > 10 µM
- TGI [57]: > 10 µM
- TGI [58]: > 10 µM

Structure (SMILES): N#Cc1ncn(CCO)c1N
- TGI [1]: > 100 µM
- TGI [2]: > 100 µM
- TGI [3]: > 100 µM
- TGI [4]: > 100 µM
- TGI [5]: > 100 µM
- TGI [6]: > 100 µM
- TGI [7]: > 100 µM
- TGI [8]: > 100 µM
- TGI [9]: > 100 µM
- TGI [10]: > 100 µM
- TGI [59]: > 100 µM
- TGI [11]: > 100 µM
- TGI [12]: > 100 µM
- TGI [13]: > 100 µM
- TGI [14]: > 100 µM
- TGI [16]: > 100 µM
- TGI [17]: > 100 µM
- TGI [18]: > 100 µM
- TGI [19]: > 100 µM
- TGI [20]: > 100 µM
- TGI [21]: > 100 µM
- TGI [22]: > 100 µM
- TGI [23]: > 100 µM
- TGI [24]: > 100 µM
- TGI [25]: > 100 µM
- TGI [26]: > 100 µM
- TGI [27]: > 100 µM
- TGI [28]: > 100 µM
- TGI [29]: > 100 µM
- TGI [30]: > 100 µM
- TGI [31]: > 100 µM
- TGI [32]: > 100 µM
- TGI [33]: > 100 µM
- TGI [34]: > 100 µM
- TGI [35]: > 100 µM
- TGI [36]: > 100 µM
- TGI [37]: > 100 µM
- TGI [38]: > 100 µM
- TGI [39]: > 100 µM
- TGI [41]: > 100 µM
- TGI [42]: > 100 µM
- TGI [43]: > 100 µM
- TGI [44]: > 100 µM
- TGI [45]: > 100 µM
- TGI [46]: > 100 µM
- TGI [47]: > 100 µM
- TGI [48]: > 100 µM
- TGI [49]: > 100 µM
- TGI [50]: > 100 µM
- TGI [51]: > 100 µM
- TGI [52]: > 100 µM
- TGI [53]: > 100 µM
- TGI [54]: > 100 µM
- TGI [55]: > 100 µM
- TGI [56]: > 100 µM
- TGI [57]: > 100 µM
- TGI [58]: > 100 µM

Source: PubChem BioAssay (NCI)
